Test results: patent US20260200929A1, “PYRROLO[3,2-D]PYRIMIDIN-4-ONE DERIVATIVE, AND PREPARATION METHOD THEREFOR AND MEDICAL USE THEREOF” (SHENZHEN SALUBRIS PHARMACEUTICALS CO., LTD., priority 2022, published 2026)
Where two headings read alike, the source gives them in different places.

Experiments:
CYP3A = CYP3A (Homo sapiens, UniProt P08684); experiment: Enzyme inhibition test, CYP3A in human liver microsomes; type: in vitro ADME; conditions: 0.2 mg/mL human liver microsomes
Description: Material: midazolam and testosterone were purchased from Cerilliant and PANPHY; ketoconazole was purchased from MCE; and human liver microsomes were purchased from Corning.
The inhibitory potential of the compound on cytochrome P450 enzyme CYP3A was evaluated using a phosphate buffer saline (100 mM, pH 7.4) system containing 0.2 mg/mL human liver microsomes. The test concentrations of the compound were 0.068 μM, 0.206 μM, 0.62 μM, 1.85 μM, 5.56 μM, 16.67 μM, and 50 μM. The positive substrates in the incubation system were 1 μM midazolam and 40 μM testosterone (CYP3A), respectively. The concentration of the positive inhibitor ketoconazole (CYP3A) in the incubation system was 0.05 μM. Incubation was carried out at 37° C., and an NADPH solution with a final concentration of 1 mM was added to initiate a reaction. The incubation time was 10 minutes. After incubation, all samples were added to 300 μL of acetonitrile solution containing 3% formic acid and internal standard (0.5 μM tolbutamide) to precipitate the protein, and the metabolic product generation of the labeled substrate was detected by UPLC-MS/MS to calculate an IC50 value of compound inhibition.

CYP2B6 = experiment: Enzyme induction test, CYP2B6 mRNA level in human primary hepatocytes; type: in vitro ADME; conditions: CYP2B6, 10 μM, 3 days
Excerpt: (§1) Material: Williams' Medium E (without phenol red) was purchased from Sigma Aldrich Trading Co., Ltd; Williams+ Medium E, Recombinant human insulin, GlutaMAX, and HEPES were purchased from Life Technologies; Isotonic Percoll was purchased from General Electric; Fetal bovine serum was purchased from Corning; Dexamethasone was commercially available; CellTiter-Fluor™ Cell Viability Assay kit was purchased from Promega; Taqman Gene Expression Assay probe (20×, CYP1A2, FAM labeled), Taqman Gene Expression Assay probe (20×, CYP2B6, FAM labeled), Taqman Gene Expression Assay probe (20×, CYP3A4, FAM labeled), and Taqman Gene Expression Assay probe (20×, ACTB, VIC labeled) were purchased from AB (Applied Biosystems); and human primary hepatocytes were purchased from BioIVT.
(§2) The test compound, a positive inducer, a negative inducer, and internal standard were accurately weighed to prepare a stock solution with the corresponding concentration. A cell thawing solution and incubation buffer were prepared, and related reagents and consumables of mRNA extraction, reverse transcription, and fluorescence quantitative PCR were prepared.
(§3) The frozen human primary hepatocytes were thawed and inoculated onto a suitable cell culture plate at a certain density for monolayer cell culture to meet cell growth requirements. […]

[1] = Pharmacokinetic study in rats; type: in vivo, SD rats; conditions: for F: 5 mg/kg p.o versus 1 mg/kg i.v; for AUC(0-t) / Cmax / clearance / half-life: male, SD, rat, plasma
Excerpt: SD rats: male, 180-350 g, purchased from Zhejiang Vital River Laboratory Animal Technology Co., Ltd.
Reagents: dimethyl sulfoxide (DMSO), polyethylene glycol 400 (PEG-400), normal saline, acetonitrile, formic acid, propranolol (internal standard) are all commercially available.
Instrument: Thermo Fisher Scientific LC-MS (Ultimate 3000 UPLC, TSQ QUANTUMN ULTRA triple quadrupole mass spectrometer).
The compound was weighed and dissolved in a DMSO-PEG-400 normal saline (5:60:35, v/v/v) system. After intravenous administration or intragastric administration to rats, 200 μL of venous blood was collected in an EDTA-K2 anticoagulation tube at 15 minutes, 30 minutes, 1 hour, 2 hours, 5 hours, 7 hours, and 24 hours (additional 5 minutes for an IV group) and centrifuged at 12000 rpm for 2 minutes. Plasma was taken and frozen and preserved at −80° C. for testing. A certain amount of samples for test was precisely weighed and dissolved in DMSO to 2 mg/mL as a stock solution. An appropriate amount of compound stock solution was accurately sucked, and diluted by adding acetonitrile to prepare a standard series solution. 4 μL of each of the above standard series solution was accurately sucked, and added to 36 µL of blank plasma, vortex mixing was performed to prepare plasma samples equivalent to plasma concentrations of 1 ng/mL, 3 ng/mL, 5 ng/mL, 10 ng/mL, 30 ng/mL, 100 ng/mL, 300 ng/mL, 1000 ng/mL, and 3000 ng/mL. Dual sample analysis was performed for each concentration to establish a standard curve. 30 μL of plasma (5-fold dilution of plasma of intravenous administration for 5 minutes, 15 minutes, and 30 minutes) was taken, a propranolol acetonitrile solution (internal standard, 50 ng/mL) was added to precipitate the protein, after 100 μL water was added for even vortex mixing, centrifugation was performed at 4000 rpm for 5 minutes, and supernatants were taken for LC-MS/MS analysis. LC-MS detection conditions were as follows: • chromatographic column: YMC-Triart C18 50×3.0 mmI.D. S-3 μm, 12 nm
A mobile phase A: water (0.1% formic acid), a mobile phase B: acetonitrile, a flow rate: 0.5 mL/min, gradient elution: […]
After LC-MS detection of blood drug concentration, WinNonlin 6.1 software was used to calculate pharmacokinetic parameters using non compartmental model method.

[2] = target: T1, human myeloperoxidase (hMPO) (Homo sapiens, UniProt P05164); experiment: Inhibition of human myeloperoxidase (hMPO) peroxidation cycle in vitro; type: biochemical; conditions: 3'-(p-aminophenyl) fluorescein and H2O2 at Km
T1 construct: purchased PLANTANATURAL 700-03-001
T1 sequence (P05164 279-745 limits assumed): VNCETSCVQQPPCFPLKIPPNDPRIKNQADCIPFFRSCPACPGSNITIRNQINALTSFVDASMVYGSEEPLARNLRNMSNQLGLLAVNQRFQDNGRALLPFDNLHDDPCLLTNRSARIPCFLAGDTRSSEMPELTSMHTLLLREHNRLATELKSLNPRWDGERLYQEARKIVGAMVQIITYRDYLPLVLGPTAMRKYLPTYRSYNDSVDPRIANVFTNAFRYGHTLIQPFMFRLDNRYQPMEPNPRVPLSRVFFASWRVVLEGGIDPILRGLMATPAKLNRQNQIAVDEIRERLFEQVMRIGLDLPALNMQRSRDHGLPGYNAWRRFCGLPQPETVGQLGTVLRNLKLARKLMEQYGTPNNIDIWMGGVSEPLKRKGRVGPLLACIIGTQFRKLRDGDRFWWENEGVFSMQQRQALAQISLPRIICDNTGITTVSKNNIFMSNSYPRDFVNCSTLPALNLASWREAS
T1 sequence (P05164 165-273 limits assumed): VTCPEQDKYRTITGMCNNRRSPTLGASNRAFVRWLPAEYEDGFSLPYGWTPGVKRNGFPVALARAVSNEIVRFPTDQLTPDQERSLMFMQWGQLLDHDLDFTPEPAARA
Description: 50 μL of 2×substrate (composed of 3′-(p-aminophenyl) fluorescein and H2O2, with 3′-(p-aminophenyl) fluorescein and H2O2 both at Km concentration, purchased from Invitrogen, A36003) to a black opaque low-protein-adsorption 96-well plate (purchased from PerkinElmer, 6005270), and 45 μL of 2×compound at different concentrations (DMSO final concentration of 1%) was added. After thorough blowing and uniform mixing of a mixture, […] of […] human myeloperoxidase (purchased from PLANTANATURAL, 700-03-001) was added and mixed uniformly, and an enzyme-linked immunosorbent assay reader was immediately used at a wavelength of Ex/Em:488/520 nm to read fluorescence values for 0-30 minutes (read every 20 seconds) using a dynamic mode. Different concentrations of compound inhibitors were calculated: inhibition rate (%)=[1−(Slopecontrol−Slopecpd)/SlopeControl−SlopeBlank)]*100, where SlopeBlank is a slope of a control without the compound and an MPO well at 0-5 minutes ([…] reading/reaction time t); SlopeControl is a slope of the well without the compound (containing 1% DMSO) at 0-5 minutes (linear reaction stage); and Slopecpd is a slope of the compound at 0-5 minutes. Using a logarithmic value of the compound concentration as an abscissa and the inhibition rate as an ordinate, a 4-parameter nonlinear regression curve was fitted to calculate the IC50 value (Y=Bottom+(Top-Bottom)/(1+10^((Log IC50−X)*HillSlope)), where Hillslope represents the slope of the fitted curve, and IC50 represents the half inhibitory concentration. Test results were shown in Table 1.

CYP3A4 = experiment: Enzyme induction test, CYP3A4 mRNA level in human primary hepatocytes; type: in vitro ADME; conditions: CYP3A4, 10 μM, 3 days
Excerpt: as §1, §2, §3

CYP1A2 = experiment: Enzyme induction test, CYP1A2 mRNA level in human primary hepatocytes; type: in vitro ADME; conditions: CYP1A2, 10 μM, 3 days
Excerpt: as §1, §2, §3

[3] = pH 7.4, probe midazolam (1 μM), CYP3A (Midazolam)
[4] = pH 7.4, probe testosterone (40 μM), CYP3A (Testosterone)

Sequence of CYP3A (P08684 2-503): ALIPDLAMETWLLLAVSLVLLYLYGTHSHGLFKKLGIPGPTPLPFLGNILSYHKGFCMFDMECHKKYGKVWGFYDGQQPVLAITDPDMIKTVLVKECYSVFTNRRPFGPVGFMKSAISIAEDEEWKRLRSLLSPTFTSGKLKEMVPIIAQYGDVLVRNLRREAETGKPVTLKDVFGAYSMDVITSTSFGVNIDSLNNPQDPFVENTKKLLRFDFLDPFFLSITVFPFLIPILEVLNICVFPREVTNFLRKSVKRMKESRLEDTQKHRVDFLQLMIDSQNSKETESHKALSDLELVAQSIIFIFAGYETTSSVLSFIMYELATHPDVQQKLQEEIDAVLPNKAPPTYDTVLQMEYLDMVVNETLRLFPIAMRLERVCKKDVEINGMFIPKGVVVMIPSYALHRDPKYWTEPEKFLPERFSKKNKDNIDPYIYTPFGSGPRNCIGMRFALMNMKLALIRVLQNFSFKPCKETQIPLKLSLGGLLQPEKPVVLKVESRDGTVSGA

N[C@@H]1CCOc2cccc(Cn3c(=S)[nH]c(=O)c4[nH]ccc43)c21 (single isomer, unassigned) [Compound 6A]
IC50 at 10 min (CYP3A; [3]): > 50 µM
IC50 at 10 min (CYP3A; [4]): 27.3 µM
mRNA Relative positive induction percentage (CYP2B6): 1.68%
F [1]: 57.2%
AUC(0-t) ([1]; iv, 1 mg/kg i.v): 1270 ng·h/mL
Cmax ([1]; iv, 1 mg/kg i.v): 1900 ng/mL
clearance ([1]; iv, 1 mg/kg i.v): 13 mL/min/kg
half-life ([1]; iv, 1 mg/kg i.v): 4.98 h
AUC(0-t) ([1]; po, 5 mg/kg p.o): 3630 ng·h/mL
Cmax ([1]; po, 5 mg/kg p.o): 1700 ng/mL
half-life ([1]; po, 5 mg/kg p.o): 3.66 h
IC50 [2]: 0.00464 µM
mRNA Relative positive induction percentage (CYP3A4): 2.10%
mRNA Relative positive induction percentage (CYP1A2): −0.29%

N[C@@H]1CCCc2cccc(Cn3c(=S)[nH]c(=O)c4[nH]ccc43)c21 (single isomer, unassigned) [Compound 7A, 1-((8-amino-5,6,7,8-tetrahydronaphthalene-1-yl)methyl)-2-thio-1,2,3,5-tetrahydro-4H-pyrrolo[3,2-d]pyrimidin-4-one]
IC50 at 10 min (CYP3A; [3]): > 50 µM
IC50 at 10 min (CYP3A; [4]): 19.7 µM
mRNA Relative positive induction percentage (CYP2B6): 8.41%
F [1]: 83.3%
AUC(0-t) ([1]; iv, 1 mg/kg i.v): 293 ng·h/mL
Cmax ([1]; iv, 1 mg/kg i.v): 800 ng/mL
clearance ([1]; iv, 1 mg/kg i.v): 52.7 mL/min/kg
half-life ([1]; iv, 1 mg/kg i.v): 2.59 h
AUC(0-t) ([1]; po, 5 mg/kg p.o): 1220 ng·h/mL
Cmax ([1]; po, 5 mg/kg p.o): 500 ng/mL
half-life ([1]; po, 5 mg/kg p.o): 3.44 h
IC50 [2]: 0.00483 µM
mRNA Relative positive induction percentage (CYP3A4): 7.93%
mRNA Relative positive induction percentage (CYP1A2): 0.15%

N[C@@H]1CCCOc2cccc(Cn3c(=S)[nH]c(=O)c4[nH]ccc43)c21 (single isomer, unassigned) [Compound 15A, 1-((5-amino-2,3,4,5-tetrahydrobenzo[b]oxypyrimidin-6-yl)methyl)-2-thio-1,2,3,5-tetrahydroxy-4H-pyrrolo[3,2-d]pyrimidin-4-one]
IC50 [2]: 0.00992 µM

NC1CCc2c(Cl)ccc(Cn3c(=S)[nH]c(=O)c4[nH]ccc43)c21 (stereo not drawn) [Compound 1, 1-((3-amino-7-chloro-2,3-dihydro-1H-inden-4-yl)methyl)-2-thio-1,2,3,5-tetrahydro-4H-pyrrolo[3,2-d]pyrimidin-4-one]
IC50 [2]: 0.0516 µM

NC1COc2c(Cl)ccc(Cn3c(=S)[nH]c(=O)c4[nH]ccc43)c21 (stereo not drawn) [Compound 2, 1-((3-amino-7-chloro-2,3-dihydrobenzofuran-4-yl)methyl)-2-thio-1,2,3,5-tetrahydro-4H-pyrrolo[3,2-d]pyrimidin-4-one]
IC50 [2]: 0.033 µM

NC1COc2cccc(Cn3c(=S)[nH]c(=O)c4[nH]ccc43)c21 (stereo not drawn) [Compound 3]
IC50 [2]: 0.031 µM

NC1CCOc2c(Cl)ccc(Cn3c(=S)[nH]c(=O)c4[nH]ccc43)c21 (stereo not drawn) [Compound 5, 1-((4-amino-8-chlorochroman-5-yl)methyl)-2-thio-1,2,3,5-tetrahydro-4H-pyrrolo[3,2-d]pyrimidin-4-one]
IC50 [2]: 0.0161 µM

NC1CCOc2cccc(Cn3c(=S)[nH]c(=O)c4[nH]ccc43)c21 (stereo not drawn) [Compound 6, 1-((4-aminochroman-5-yl)methyl)-2-thio-1,2,3,5-tetrahydro-4H-pyrrolo[3,2-d]pyrimidin-4-one]
F [1]: 48.6%
AUC(0-t) ([1]; iv, 1 mg/kg i.v): 827 ng·h/mL
clearance ([1]; iv, 1 mg/kg i.v): 19.9 mL/min/kg
half-life ([1]; iv, 1 mg/kg i.v): 3.36 h
Cmax ([1]; iv, 1 mg/kg i.v, read-out: Cmax): 620 ng/mL
AUC(0-t) ([1]; po, 5 mg/kg p.o): 2010 ng·h/mL
half-life ([1]; po, 5 mg/kg p.o): 5.13 h
Cmax ([1]; po, 5 mg/kg p.o, read-out: Cmax): 305 ng/mL
IC50 [2]: 0.00802 µM

NC1CCCc2cccc(Cn3c(=S)[nH]c(=O)c4[nH]ccc43)c21 (stereo not drawn) [Compound 7, 1-((8-amino-5,6,7,8-tetrahydronaphthalene-1-yl)methyl)-2-thio-1,2,3,5-tetrahydro-4H-pyrrolo[3,2-d]pyrimidin-4-one]
IC50 [2]: 0.0107 µM

Cc1c[nH]c2c(=O)[nH]c(=S)n(Cc3cccc4c3C(N)CCO4)c12 (stereo not drawn) [Compound 16]
IC50 [2]: 0.0196 µM

COc1c[nH]c2c(=O)[nH]c(=S)n(Cc3cccc4c3C(N)CCO4)c12 (stereo not drawn) [Compound 17, 1-((4-aminochroman-5-yl)methyl)-7-methoxyl-2-thio-1,2,3,5-tetrahydro-4H-pyrrolo[3,2-d]pyrimidin-4-one]
IC50 [2]: 0.0234 µM
